In brackets after ≈: the same amount, converted by molar mass.
Tests used:
[1] = Release and content of Amoxicillin from HA coatings loaded with pamidronate and Amoxicillin (methods of Examples 8 and 9); assay type: physicochemical
[2] = test system: Staphylococcus aureus strain Cowan I; experiment: Inhibition zones of bacterial growth in bacteria agar around antibiotic loaded HA coated plates; assay type: cell-based; conditions: loading 15 minutes to 24 hours; release in PBS 15 minutes to 24 hours before agar; incubated 37°C 18 hours
Method: The incorporation of antibiotics was preformed by soaking the HA coated plates in 10 ml PBS containing 50 µg of either Tobramycin, Cephalotin, Amoxicillin or Gentamicin sulfate (Sigma-Aldrich Company Ltd.). The drug loading was performed at room temperature in 50 ml conical test tubes for four different soaking times between 15 minutes and 24 hours.
After incorporation of antibiotics, the plates were immediately transferred to new tubes filled with 40 ml of PBS preheated to 37°C in order to let the incorporated drug leak out for various time intervals before monitoring the antibacterial effect of the drug remaining in the coatings. After either 15 minutes, 60 minutes or 24 hours, the plates were removed and dried at room temperature for further analysis of the remaining antibacterial effect in the Staphylococcus aureus agar described below.
A Mueller-Hinton broth (Merck) containing 0.8% Agar was prepared by dissolving the powder in de-ionized water and sterilized by autoclaving at 121°C for 20 minutes. The broth was then tempered to 40°C in a water bath. Staphylococcus aureus strain Cowan I (NCTC 8530, National Collection of Type Cultures, London, UK) in a PBS suspension was added directly to the broth giving it a final optical density at 600 nm of 0.005 (corresponding to approximately 5x10^6 cfu/ml). The mixture was mixed to homogenously distribute the bacteria in the substrate and then transferred to Petri dishes. The dishes were filled to a depth of 10 mm (50 ml) with the bacterial broth. As the agar stiffened at room temperature, the titanium plates were stuck down in the agar at a right angle to the surface, having both sides in contact with the bacterial substrate. The Petri dishes were then incubated at 37°C for 18 hours. A HA coated reference plate without any antibiotics was also tested. The inhibition zones of bacterial growth formed around the plates were photographed by an imaging instrument (Geldoc 2000, Bio-Rad).

[3] = assay type: physicochemical; conditions: for anticipated release time: assuming constant release rate until coatings are emptied, including the 22 hours of release before hydrochloric acid treatment; for drug release rate: from HA coating in PBS at room temperature, between 2 and 22 hours after start; for duration of initial rapid drug release (burst): from HA coatings, loading times 15 minutes, 1 hour, 24 hours
Method: The drug loading was performed at room temperature in 50 ml conical test tubes for four different soaking times between 15 minutes and 24 hours. […] The liquid was circulated through a cell in which the drug concentration was detected. After the release in PBS, the HA coatings soaked for 24 hours in the antibiotic solutions were dissolved by lowering the pH of the PBS to 2 by addition of hydrochloric acid. This was done to release and measure the amount of remaining drugs still present in the coatings after 22 hours of release. To relate the antibiotics concentration released to the antibacterial effect, antimicrobial susceptibility tests (E-test, AB Biodisk, Sweden) for Amoxicillin and Cephalothin was performed on strain S aureus Cowan I and on Staphylococcus epidermidis Kx293A1 (Department of Microbiology, Swedish University of Agricultural Sciences).

[4] = test system: Staphylococcus epidermidis Kx293A1; experiment: E-test antimicrobial susceptibility test (MIC); assay type: cell-based; conditions: inhibiting bacteria in 1 ml broth
Method: (§1) The drug release rate was analyzed using UV spectroscopy (Shimadzu 1650PC, Shimadzu Corp.) by immersing plates that had been soaked in Amoxicillin and Cephalothin for 15 minutes, 1 hour and 24 hours in 8.2 ml of either water or PBS at room temperature. The release was measured (using a wavelength Of 230 nm for Amoxicillin and 239 nm for Cephalothin) in water for 1 hour to investigate the initial release and then in PBS for 22 hours to investigate the slow release after the initial burst. The liquid was circulated through a cell in which the drug concentration was detected. After the release in PBS, the HA coatings soaked for 24 hours in the antibiotic solutions were dissolved by lowering the pH of the PBS to 2 by addition of hydrochloric acid. This was done to release and measure the amount of remaining drugs still present in the coatings after 22 hours of release. To relate the antibiotics concentration released to the antibacterial effect, antimicrobial susceptibility tests (E-test, AB Biodisk, Sweden) for Amoxicillin and Cephalothin was performed on strain S aureus Cowan I and on Staphylococcus epidermidis Kx293A1 (Department of Microbiology, Swedish University of Agricultural Sciences).
(§2) Table 1 presents the concentration of Amoxicillin and Cephalothin that has to be present to ensure killing of S. aureus and S. epidermidis, as divulged from the antimicrobial susceptibility tests. Table 1: Result from E-test for antimicrobial susceptibility testing, determining the minimum inhibitory concentration (MIC) of antimicrobial agents against microorganisms (inhibiting bacteria in 1 ml broth).

S aureus Cowan I = experiment: E-test antimicrobial susceptibility test (MIC); assay type: cell-based; conditions: Staphylococcus aureus, inhibiting bacteria in 1 ml broth
Method: as §1, §2

Compound	time for which a therapeutically significant dose of amoxicillin was released ([1]; Example 10: co-loading, 10 ml PBS, 6 mg pamidronate disodium salt hydrate, 100 µg Amoxicillin, 50 °C, 25 minutes, rinsed 5 minutes in PBS)	time for which a therapeutically significant dose of amoxicillin was released ([1]; Example 11: sequential loading, 7 mg pamidronate 40°C 12 minutes, then 70 µg Amoxicillin 40°C 15 minutes, soaked in PBS 7 minutes)	antibacterial effect (inhibition zone, clear agar closest to the plates) [2]	anticipated release time [3]	drug release rate [3]	duration of initial rapid drug release (burst) [3]	MIC [4]	MIC (S aureus Cowan I)	amount of antibiotics remaining in the coating after 22 hours of release ([3]; buffer)
CC1(C)S[C@@H]2[C@H](NC(=O)[C@H](N)c3ccc(O)cc3)C(=O)N2[C@H]1C(=O)O [Amoxicillin]	7 days	6 days	the antibiotic effect was preserved	27 h	0.42±0.10 µg/h·cm^2	less than 10 minutes	0.19 µg/mL (≈ 0.52 µM)	0.064 µg/mL (≈ 0.175 µM)	–
CC(=O)OCC1=C(C(=O)O)N2C(=O)[C@@H](NC(=O)Cc3cccs3)[C@H]2SC1 [Cephalothin]	–	–	the antibiotic effect was preserved	63 h	0.22±0.06 µg/h·cm^2	less than 10 minutes	0.064 µg/mL (≈ 0.161 µM)	0.064 µg/mL (≈ 0.161 µM)	~ 18 µg
NC[C@H]1O[C@H](O[C@H]2[C@H](O)[C@@H](O[C@H]3O[C@H](CO)[C@@H](O)[C@H](N)[C@H]3O)[C@H](N)C[C@@H]2N)[C@H](N)C[C@@H]1O [Tobramycin]	–	–	the antibiotic effect was preserved	–	–	–	–	–	–
Gentamicin sulfate	–	–	the antibiotic effect was preserved	–	–	–	–	–	–

— patent publication EP2249889B1, “CRYSTALLINE SURGICAL IMPLANT COMPOSITE MATERIALS AND KITS AND METHODS OF MANUFACTURE” (Sandvik Intellectual Property AB, priority 2008, dated 2009)
